Reference: patent publication US20030114673A1, “2-AMINO-5,6-DIHALO-3,4-DIHYDROQUINAZOLINES WITH BLOOD PLATELET REDUCING PROPERTIES” (priority 2002, published 2003)
Counter-ions that a name gives are not always drawn. Values belong to the compound of their own block, whether it stands above or below them.

Key:
[1] = Cardiovascular screening and side effect profile of the compound; assay type: in vivo
platelet count = test: Platelet reducing properties; details: in vivo
[2] = In vitro metabolism of Anagrelide in rat liver microsomes; assay type: in vitro ADME
Excerpt: (§1) Metabolism of Anagrelide was examined in a number of in vitro systems including rat and human liver microsomes, human whole blood, human bone marrow cells and rat intestinal mucosa. […] It appears that in vivo metabolism occurs by a route that cannot be readily mimicked in vitro. It is hypothesized that the first step of in vivo metabolism involves hydroxylation of the carbon α to the carbonyl followed by amide hydrolysis and loss of the elements of glyoxylic acid.

[3] = In vitro metabolism of Anagrelide in human liver microsomes; assay type: in vitro ADME
Excerpt: as §1

[4] = In vitro metabolism of Anagrelide in human whole blood; assay type: in vitro ADME
Excerpt: as §1

[5] = In vitro metabolism of Anagrelide in human bone marrow cells; assay type: in vitro ADME
Excerpt: as §1

[6] = In vitro metabolism of Anagrelide in rat intestinal mucosa; assay type: in vitro ADME
Excerpt: as §1

[7] = set-up: species or system Rhesus Monkeys; details: rhesus monkey, in vivo
Excerpt: In a recent pharmacokinetic and excretion study of [^14C]

[8] = clinical use of Anagrelide; cited from earlier work
[9] = cited from earlier work
Solubility in water = assay type: physicochemical; details: salt form as named
Excerpt: 2-Amino-5,6-dichloro-3,4-dihydroquinazoline (compound (E) wherein X and Y are both Cl) is the preferred compound for use in reducing the platelet count in patients and is preferably provided as the hydrobromide salt which is water soluble.

[10] = tested on: circulating platelet levels; test: Daily intraperitoneal injection in mice, circulating platelet levels and safety; assay type: in vivo
Experimental: Administration of 100 μg/day of the preferred compound was sufficient to decrease platelet counts within 24-48 hours stabilizing to 50% of normal by day 5.

megakaryocytic lineage = test: Inhibition of megakaryocytic endoreplication; assay type: cell-based
CD15+ myeloid lineage = test: Effect on the CD15+ myeloid lineage in vitro; assay type: cell-based
platelet aggregation = test: Platelet aggregation; assay type: cell-based; details: even at high concentrations (10 μg/mL)

SMILES: NC1=Nc2ccc(Cl)c(Cl)c2CN1 [2-amino-5,6-dichloro-3,4-dihydroquinazoline]
antihypertensive activity ([1]; cardiovascular screening): Only very mild antihypertensive activity
side effects of inotropy and haemorrhaging associated with Anagrelide ([1]; in vivo): without the side effects of inotropy and haemorrhaging
reduction of platelet counts (platelet count): active molecule for causing reduction of platelet counts

metabolism in vitro [2]: completely resistant to metabolism
metabolism in vitro [3]: completely resistant to metabolism
metabolism in vitro [4]: completely resistant to metabolism
metabolism in vitro [5]: completely resistant to metabolism
metabolism in vitro [6]: completely resistant to metabolism
SMILES: O=C1CN2Cc3c(ccc(Cl)c3Cl)N=C2N1 [Anagrelide, 6,7-dichloro-1,5-dihydroimidazo-[2,1-b]-quinazolin-2(3H)-one]
detection of the human metabolite 2-amino-5,6-dichloro-3,4-dihydroquinazoline [7]: no human metabolite (2-amino-5,6-dichloro-3,4-dihydroquinazoline) was detected
congestive heart failure (cardiovascular side effect incidence) [8]: 1.5%
palpitations (cardiovascular side effect incidence) [8]: 26.1%
tachycardia (cardiovascular side effect incidence) [8]: 7.5%
vasodilation (cardiovascular side effect incidence) [8]: < 5%
Anagrelide dose excreted as unchanged drug in the urine ([9]; human subjects): < 1%
peak plasma concentrations of the parent drug ([9]; human subjects): 6 ng/mL
urinary radioactivity accounted for by a minimum of four to five metabolites ([9]; human, in vivo): over 75%

solubility in water (Solubility in water): nearly insoluble in water
SMILES: O=C1CN2Cc3c(ccc(Cl)c3Cl)N=C2N1 [Anagrelide hydrochloride]

SMILES: Br.NC1=Nc2ccc(Cl)c(Cl)c2CN1 [2-amino-5,6-dichloro-3,4-dihydroquinazoline hydrobromide]
solubility in water (Solubility in water): water soluble
circulating platelet levels ([10]; 6- to 8-month old mice, daily intraperitoneal injection): dose-dependent decrease
time to decrease in platelet counts ([10]; mice, 100 μg/day intraperitoneal): 24 to 48 h
platelet counts stabilized level ([10]; mice, 100 μg/day intraperitoneal, by day 5): 50 % of normal
apparent signs of toxicity or haemorrhaging ([10]; mice, high doses (300 μg)): did not alter white blood cell counts, bleeding time or lead to any apparent signs of toxicity or haemorrhaging
inhibition of megakaryocytic endoreplication (megakaryocytic lineage): profound inhibition
dose for inhibition of megakaryocytic endoreplication relative to doses reported for Anagrelide (megakaryocytic lineage; compared with those reported for Anagrelide): 500 times less
effect on the CD15+ myeloid lineage (CD15+ myeloid lineage): no effect
inhibition of platelet aggregation (platelet aggregation): did not inhibit platelet aggregation
